Results published in patent US4443436A, “C-20-Modified macrolide derivatives of the macrolide antibiotics tylosin, desmycosin, macrocin, and lactenocin” (Eli Lilly and Company, priority 1982, dated 1984).
Values after ≈ are worked out from the molar mass of the structure shown. Where two headings read alike, the source gives them in different places.

Assays:
[1] = system: Staphylococcus aureus S13E; test: MIC, standard agar-dilution assay, Staphylococcus aureus S13E; assay type: cell-based; conditions: Staphylococcus aureus, S13E
[2] = system: Streptococcus pyogenes C203; test: In vivo protection of mice experimentally infected with S. pyogenes C203; conditions: Streptococcus pyogenes, mice, doses given 1 and 4 hours post-infection
Protocol: The C-20 modified derivatives of this invention have shown in vivo antimicrobial activity against experimentally-induced infections in laboratory animals. When two doses of test compound were administered to mice experimentally infected with S. pyogenes C203, the activity observed was measured as an ED50 value [effective dose in mg/kg to protect 50% of the test animals: see Warren Wick, et al., J. Bacteriol. 81, 233-235 (1961)].

[3] = system: Pasteurella multocida 17E; test: MIC, broth-dilution microtiter test, Pasteurella multocida 17E; assay type: cell-based
Source text: (§1) The MIC's in Table X were obtained using conventional broth-dilution microtiter tests.

[4] = system: Staphylococcus epidermidis EPI1; test: MIC, standard agar-dilution assay, Staphylococcus epidermidis EPI1; assay type: cell-based; conditions: Staphylococcus epidermidis, EPI1
[5] = system: Streptococcus pyogenes C203; test: MIC, standard agar-dilution assay, Streptococcus pyogenes C203; assay type: cell-based; conditions: Streptococcus pyogenes, C203
[6] = system: Staphylococcus aureus X400; test: MIC, standard agar-dilution assay, Staphylococcus aureus X400; assay type: cell-based; conditions: Staphylococcus aureus, X400
[7] = system: Staphylococcus aureus X1.1; test: MIC, standard agar-dilution assay, Staphylococcus aureus X1.1; assay type: cell-based; conditions: Staphylococcus aureus, X1.1
Staphylococcus aureus = test: MIC, broth-dilution microtiter test, Staphylococcus aureus; assay type: cell-based
Source text: as §1

Streptococcus Group 9960 = test: MIC, standard agar-dilution assay, Streptococcus Group 9960; assay type: cell-based; conditions: GROUP9960; Streptococcus Group 9960; agar dilution; read-out: MIC
[8] = system: Staphylococcus aureus V41; test: MIC, standard agar-dilution assay, Staphylococcus aureus V41; assay type: cell-based; conditions: Staphylococcus aureus, V41
Mycoplasma gallisepticum = test: MIC, broth-dilution microtiter test, Mycoplasma gallisepticum; assay type: cell-based; conditions: Mycoplasmoides gallisepticum
Source text: as §1

[9] = system: Staphylococcus epidermidis EPI2; test: MIC, standard agar-dilution assay, Staphylococcus epidermidis EPI2; assay type: cell-based; conditions: Staphylococcus epidermidis, EPI2
Mycoplasma synoviae = test: MIC, broth-dilution microtiter test, Mycoplasma synoviae; assay type: cell-based; conditions: Mycoplasmopsis synoviae
Source text: as §1

[10] = system: Streptococcus pneumoniae Park I; test: microbe, parasite or virus in culture; assay type: cell-based; conditions: Streptococcus pneumoniae
Mycoplasma hyorhinis = test: MIC, broth-dilution microtiter test, Mycoplasma hyorhinis; assay type: cell-based
Source text: as §1

Streptococcus bovis 80 = test: MIC, broth-dilution microtiter test, Streptococcus bovis 80; assay type: cell-based; conditions: Streptococcus equinus
Source text: as §1

[11] = system: Streptococcus Group D X66; test: MIC, standard agar-dilution assay, Streptococcus Group D X66; assay type: cell-based
[12] = system: Pasteurella multocida 60A; test: MIC, broth-dilution microtiter test, Pasteurella multocida 60A; assay type: cell-based
Source text: as §1

[13] = system: Pasteurella hemolytica 22C; test: MIC, broth-dilution microtiter test, Pasteurella hemolytica 22C; assay type: cell-based
Source text: as §1

[14] = system: Haemophilus influenzae R252; test: MIC, standard agar-dilution assay, Haemophilus influenzae R252; assay type: cell-based; conditions: Haemophilus influenzae R252; ampicillin-resistant strain; read-out: MIC
[15] = system: Haemophilus influenzae Holt; test: MIC, standard agar-dilution assay, Haemophilus influenzae Holt; assay type: cell-based; conditions: Haemophilus influenzae
[16] = C203, sc, subcutaneous, read-out: ED50, Subcutaneous
[17] = C203, oral, read-out: ED50, Oral
[18] = Pasteurella multocida 17E, bovine isolate, broth-dilution microtiter, read-out: MIC
[19] = Streptococcus Group D X66, agar dilution, read-out: MIC
[20] = Pasteurella multocida 60A, avian isolate, broth-dilution microtiter, read-out: MIC
[21] = Pasteurella hemolytica 22C, broth-dilution microtiter, read-out: MIC
[22] = Mycoplasma gallisepticum, broth-dilution microtiter, read-out: MIC
[23] = Mycoplasma hyorhinis, broth-dilution microtiter, read-out: MIC

CCC1OC(=O)CC(O)C(C)C(OC2OC(C)C(O)C(N(C)C)C2O)C(CCI)CC(C)C(=O)C=CC(C)=CC1COC1OC(C)C(O)C(O)C1OC (stereo not shown) [Compound 57, 20-DH-DO-20-Iodolactenocin]
MIC [1]: 0.5 mg/L (≈ 0.575 µM) | ED50 [2, 16]: 5.2 mg/kg | ED50 [2, 17]: 79 mg/kg | MIC [3, 18]: 25 mg/L (≈ 28.7 µM) | MIC [4]: 0.5 mg/L (≈ 0.575 µM) | MIC [5]: 0.5 mg/L (≈ 0.575 µM) | MIC [6]: 1 mg/L (≈ 1.15 µM) | MIC [7]: 0.5 mg/L (≈ 0.575 µM) | MIC (Staphylococcus aureus): 0.78 mg/L (≈ 0.897 µM) | MIC (Streptococcus Group 9960): 16 mg/L (≈ 18.4 µM) | MIC [8]: 0.5 mg/L (≈ 0.575 µM) | MIC (Mycoplasma gallisepticum): 3.12 mg/L (≈ 3.59 µM) | MIC [9]: 0.5 mg/L (≈ 0.575 µM) | MIC (Mycoplasma synoviae): 1.56 mg/L (≈ 1.79 µM) | MIC [10]: 4 mg/L (≈ 4.6 µM) | MIC (Mycoplasma hyorhinis; Mycoplasma): 50 mg/L (≈ 57.5 µM) | MIC (Streptococcus bovis 80; 80): 3.12 mg/L (≈ 3.59 µM) | MIC [11, 19]: 16 mg/L (≈ 18.4 µM) | MIC [12, 20]: 25 mg/L (≈ 28.7 µM) | MIC [13, 21]: 25 mg/L (≈ 28.7 µM)

CCC1OC(=O)CC(O)C(C)C(OC2OC(C)C(OC3CC(C)(O)C(O)C(C)O3)C(N(C)C)C2O)C(CCOC(=O)COc2ccccc2)CC(C)C(=O)C=CC(C)=CC1COC1OC(C)C(O)C(OC)C1OC (stereo not shown) [Compound 11, 20-DH-20-O-(Phenoxyacetyl)tylosin]
MIC [1]: 0.5 mg/L (≈ 0.475 µM) | MIC [3, 18]: > 50 mg/L | MIC [14]: > 128 mg/L | MIC [4]: 0.5 mg/L (≈ 0.475 µM) | MIC [5]: 0.5 mg/L (≈ 0.475 µM) | MIC [6]: 1 mg/L (≈ 0.95 µM) | MIC [7]: 0.5 mg/L (≈ 0.475 µM) | MIC (Staphylococcus aureus; broth-dilution microtiter, read-out: MIC): 1.56 mg/L (≈ 1.48 µM) | MIC (Streptococcus Group 9960): 8 mg/L (≈ 7.6 µM) | MIC [8]: 0.5 mg/L (≈ 0.475 µM) | MIC (Mycoplasma gallisepticum; [22]): 1.56 mg/L (≈ 1.48 µM) | MIC [9]: 0.5 mg/L (≈ 0.475 µM) | MIC (Mycoplasma synoviae; Mycoplasma synoviae, broth-dilution microtiter, read-out: MIC): 3.12 mg/L (≈ 2.97 µM) | MIC [10]: 0.5 mg/L (≈ 0.475 µM) | MIC [15]: > 128 mg/L | MIC (Mycoplasma hyorhinis; [23]): > 50 mg/L | MIC (Streptococcus bovis 80; Streptococcus bovis 80, broth-dilution microtiter, read-out: MIC): 3.12 mg/L (≈ 2.97 µM) | MIC [11]: 8 mg/L (≈ 7.6 µM) | MIC [12, 20]: > 50 mg/L | MIC [13, 21]: > 50 mg/L

CCC1OC(=O)CC(O)C(C)C(OC2OC(C)C(OC3CC(C)(O)C(O)C(C)O3)C(N(C)C)C2O)C(CCN2C(=O)c3ccccc3C2=O)CC(C)C(=O)C=CC(C)=CC1COC1OC(C)C(O)C(OC)C1OC (stereo not shown) [Compound 1, 20-DH-DO-20-N-Phthalimidotylosin]
MIC [1]: 1 mg/L (≈ 0.955 µM) | ED50 [2, 16]: > 6.3 mg/kg | ED50 [2, 17]: 71 mg/kg | MIC ([3]; Pasteurella multocida, 17E): > 50 mg/L | MIC [14]: > 128 mg/L | MIC [4]: 1 mg/L (≈ 0.955 µM) | MIC [5]: 2 mg/L (≈ 1.91 µM) | MIC [6]: 2 mg/L (≈ 1.91 µM) | MIC [7]: 1 mg/L (≈ 0.955 µM) | MIC (Staphylococcus aureus): 6.25 mg/L (≈ 5.97 µM) | MIC (Streptococcus Group 9960): 128 mg/L (≈ 122 µM) | MIC [8]: 1 mg/L (≈ 0.955 µM) | MIC (Mycoplasma gallisepticum): 3.12 mg/L (≈ 2.98 µM) | MIC [9]: 1 mg/L (≈ 0.955 µM) | MIC (Mycoplasma synoviae): 6.25 mg/L (≈ 5.97 µM) | MIC [10]: 32 mg/L (≈ 30.6 µM) | MIC [15]: > 128 mg/L | MIC (Mycoplasma hyorhinis; [23]): > 50 mg/L | MIC (Streptococcus bovis 80; 80): 50 mg/L (≈ 47.7 µM) | MIC [12, 20]: > 50 mg/L | MIC [13, 21]: > 50 mg/L

CCOC(=O)c1ccc(OCCC2CC(C)C(=O)C=CC(C)=CC(COC3OC(C)C(O)C(OC)C3OC)C(CC)OC(=O)CC(O)C(C)C2OC2OC(C)C(O)C(N(C)C)C2O)cc1 (stereo not shown) [Compound 38, 20-DH-20-O-[p-(Ethoxycarbonyl)phenyl]desmycosin]
MIC [1]: 0.5 mg/L (≈ 0.542 µM) | ED50 [2, 16]: > 10 mg/kg | ED50 [2, 17]: 35 mg/kg | MIC [3, 18]: 25 mg/L (≈ 27.1 µM) | MIC [4]: 0.5 mg/L (≈ 0.542 µM) | MIC [5]: 0.5 mg/L (≈ 0.542 µM) | MIC [6]: 0.5 mg/L (≈ 0.542 µM) | MIC [7]: 0.5 mg/L (≈ 0.542 µM) | MIC (Staphylococcus aureus): 0.78 mg/L (≈ 0.846 µM) | MIC (Streptococcus Group 9960): 16 mg/L (≈ 17.4 µM) | MIC [8]: 0.5 mg/L (≈ 0.542 µM) | MIC (Mycoplasma gallisepticum; [22]): 0.39 mg/L (≈ 0.423 µM) | MIC [9]: 0.25 mg/L (≈ 0.271 µM) | MIC (Mycoplasma synoviae): 1.56 mg/L (≈ 1.69 µM) | MIC [10]: 1 mg/L (≈ 1.08 µM) | MIC [15]: 16 mg/L (≈ 17.4 µM) | MIC (Mycoplasma hyorhinis; [23]): 25 mg/L (≈ 27.1 µM) | MIC (Streptococcus bovis 80; 80): 0.78 mg/L (≈ 0.846 µM) | MIC [11, 19]: 8 mg/L (≈ 8.68 µM) | MIC ([12]; Pasteurella multocida, 60A): 50 mg/L (≈ 54.2 µM) | MIC ([13]; Pasteurella, 22C): 50 mg/L (≈ 54.2 µM)
